What was measured:
cells [1] = test: Toxicity in assays of cell growth; format: cell-based; conditions: 2 mM in culture medium for 72 h
Protocol: (§1) LZQ and LMQ were loaded into cells efficiently by hypotonic shock or passive incubation. […] As was found for SPQ, LZQ and LMQ were non-toxic to cells in assays of cell growth (2 mM in culture medium for 72 h).

cells [2] = test: Cell loading and intracellular distribution (fluorescence/confocal microscopy); format: cell-based
Protocol: Fluorescence microscopy. Fluorescence microscopy measurements were performed as described previously (Chao et al., 1989). Briefly, coverglasses were mounted in a 0.5 ml perfusion chamber in which the cell-free glass surface made contact with an oil immersion objective (Nikon ×40 magnification, numerical aperture[NA] 1.3). Cell fluorescence was excited at 365±10 nm (SPQ) or 420 nm±10 nm (LZQ and LMQ). Emitted fluorescence was detected by a photomultiplier in a Nikon inverted epifluorescence microscope using a 410 nm dichroic mirror and 420 nm barrier filter (SPQ) or a 455 nm dichroic mirror and 500 nm barrier filter (LZQ). For cells colabeled with SPQ and LZQ, SPQ fluorescence was excited at 365±10 nm and detected using a 410 nm dichroic mirror and 455±30 nm interference filter. Confocal fluorescence micrographs were obtained using a Nipkow wheel confocal microscope and cooled CCD camera detector using a ×60 oil immersion objective (Nikon, NA 1.4). LZQ-labeled cells were viewed using a fluorescein filter set (excitation 480±15 nm, emission 520±20 nm).
Transport measurements. Cells were labeled with LZQ or SPQ by hypotonic shock (loading buffer/water 1:1 containing 2 mM LZQ or 7.5 mM SPQ) for 5 min at room temperature or by overnight incubation with indicators in the cell culture medium. Extracellular indicator was removed by washing just prior to measurements. For fluorescence microscopy, glass coverslips were then mounted in a perfusion chamber (flow ~2 ml/min) in which solutions were exchanged using a 4-way valve. For microplate reader measurements, cells in 96-well plates were bathed in […] of the `1st buffer` (see Table 3) and […] of the Cl^- -containing, I^- -free solution was injected into the well to drive Cl^- /I^- exchange (protocol 1). For stimulation of CFTR using protocol 2, […] of a 1:8 mixture of the 1st buffer and the 2nd buffer containing […] forskolin, 2 mM CPT-cAMP and […] IBMX was added.
as §1

[3] = Fluorescence spectra / optical properties; format: physicochemical; design: key to Brightness: ++++: very bright; +++: bright; ++: moderate brightness; +: weak
Protocol: Computations. In vitro fluorescence quenching studies were carried out at peak excitation and emission wavelengths. Microliter aliquots of the sodium salt of the quenching anion (1 M) were added to indicator solution in 5 mM sodium phosphate (pH 7.2, unless indicated otherwise). Fluorescence intensities in the absence (Fo) and presence (F) of quencher anion ([Q]) were measured to give the Stem-Volmer constant (Kq) as defined by:
Fluorescence spectra reveal that LZQ and LMQ have broad excitation and emission peaks with maxima at 424 and 528 nm, respectively. The molar extinction coefficient of LZQ was 11,100 M^-1 cm^-1 at 424 nm and the quantum yield in the absence of I^- was 0.53. Stem-Volmer plots for quenching of LZQ and LMQ by I^- and Cl^-, with data for SPQ shown for comparison, were generated. In water (or saline), LZQ fluorescence was quenched by I^- with a Stem-Volmer constant of 60 M^-1. LZQ fluorescence was not quenched (Stem-Volmer constant <1 M^-1) by Cl^-, NO3^-, phosphate, acetate, Na^+ and K^+. LZQ fluorescence and I^- sensitivity were not affected by pH changes in the range 4.5-8.

cells [4] = test: Chemical stability in cells (thin layer chromatography of lysates); format: cell-based; conditions: TLC of lysates from loaded cells
Protocol: as §1

[5] = Time-resolved anisotropy in water; format: physicochemical; conditions: single-component, n=3
Protocol: Time resolved fluorescence measurements. Fluorescence lifetime and anisotropy decay measurements were carried out in the frequency domain by cuvette fluorimetry using a Fourier transform fluorimeter (48000 MHF, SLM Instruments, Urbana, Ill.) or by fluorescence microscopy using epifluorescence microscope optics in place of the cuvette compartment (Verkman et al., 1991). For microscopy measurements, impulse-modulated vertically polarized light (442 nm, He--Cd laser 35 mwatts) was reflected onto the sample by a 510 nm dichroic mirror and objective lens; emitted fluorescence was filtered by a 515 nm barrier filter and passed through a rotatable analyzing calcite polarizer. In some experiments, a biconcave lens was introduced just in front of the dichroic mirror to diverge beam diameter in the focal plane to […].
Analysis of lifetime and time-resolved anisotropy was performed by a comparative approach. Generally six pairs of measurements (each acquisition 8 s) were obtained, comparing sample and reference (fluorescein in 0.1 N NaOH, lifetime 4.0 ns) for measurement of lifetime, and parallel and perpendicular orientations of the emission polarizer for measurement of anisotropy decay. […] Median phase and modulation values for paired data were analyzed by nonlinear least-squares for determination of lifetimes and rotational correlation times.

[6] = Stopped-flow response to addition and removal of I^-; format: physicochemical

Compound: [O-]c1nc2c(N[C@@H]3O[C@H](CO)[C@@H](O)[C@H]3O)ncnc2[n+]2ccccc12 [I, 4-(β-D-ribofuranosylamino)-pyrido [2,1-h] pteridin-11-ium-5-olate]
- toxicity to cells (cell growth) (cells [1]): non-toxic
- Cellular properties: staining/distribution (cells [2]; Table 4): staining uniform
- labeling of cytoplasm and nucleoplasm (cells [2]; all cell types tested: T84, Calu-3, JME, LLC-PK1, MDCK, 3T3 fibroblasts, CHO, HeLa): uniform labeling of the cytoplasm and nucleoplasm
- fluorescence intensity in cells vs. SPQ (cells [2]; confocal, substantially higher SPQ concentration used): remarkably more intense
- loading into cells (cells [2]; hypotonic shock or passive incubation): efficiently
- emission maximum [3]: 528 nm
- excitation maximum [3]: 424 nm
- Brightness ([3]; Table 4): +++
- λem (emission wavelength) ([3]; Table 4): 528 nm
- λex (excitation wavelength) ([3]; Table 4): 424 nm
- molar extinction coefficient ([3]; at 424 nm): 11,100 M^-1 cm^-1
- quantum yield ([3]; in the absence of I^-): 0.53
- effect of pH on fluorescence ([3]; pH 4.5-8): not affected
- chemical stability in cells (cells [4]): remained chemically stable in cells
- rotational correlation time [5]: 121±3 ps
- response time to rapid addition and removal of I^- [6]: < 1 ms
